Laboratory results published in PMC10314921, “Eltrombopag directly activates BAK and induces apoptosis” (Cell Death & Disease, 2023).

Molecular target: T1, BAK (Homo sapiens, UniProt Q16611)
T1 construct: gene BAK1; BAKΔTM (lacking its transmembrane domain) for MST; BAK 15–186 for NMR
T1 sequence (Q16611 15-186): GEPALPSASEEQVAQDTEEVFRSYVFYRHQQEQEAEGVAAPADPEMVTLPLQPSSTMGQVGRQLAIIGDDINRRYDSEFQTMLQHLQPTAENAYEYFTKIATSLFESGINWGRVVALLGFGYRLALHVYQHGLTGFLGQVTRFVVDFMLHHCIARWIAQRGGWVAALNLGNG
Test: microscale thermophoresis; 1H, […]-HSQC NMR titration; BAK oligomerization and liposome release as support
Type: binding

Q: `CC1=NN(c2ccc(C)c(C)c2)C(=O)/C1=N\Nc1cccc(-c2cccc(C(=O)O)c2)c1O` [Eltrombopag] was tested. Which Kd did it give?
A: 1.2 ± 0.7 µM
